Values after ≈ are worked out from the molar mass of the structure shown.
What was measured:
[1] = target: T1, hA1AR (Homo sapiens, UniProt P30542); experiment: Radioligand binding competition, [3H]DPCPX, membranes from CHO-A1 cells; settings: 1 μM, [3H]DPCPX, human CHO cells, n = 2
T1 sequence (P30542 1-326): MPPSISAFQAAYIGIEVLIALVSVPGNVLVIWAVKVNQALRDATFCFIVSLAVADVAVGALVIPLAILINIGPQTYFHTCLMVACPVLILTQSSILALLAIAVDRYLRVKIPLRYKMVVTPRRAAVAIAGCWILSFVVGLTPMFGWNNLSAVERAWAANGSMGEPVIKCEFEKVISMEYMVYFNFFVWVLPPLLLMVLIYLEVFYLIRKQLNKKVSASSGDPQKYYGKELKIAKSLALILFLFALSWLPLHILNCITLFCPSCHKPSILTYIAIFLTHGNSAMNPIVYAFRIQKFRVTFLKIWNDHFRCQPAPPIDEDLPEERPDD
Outline: (§1)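 Racemates, plus selected enantiomers after chiral resolution, were tested at 25 °C, with a 60 min incubation for one subtype and 30 min for others. Non-specific binding was defined with 10 μM or 100 μM R-PIA. Bound radioactivity was counted after washing and filtration.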

[2] = target: T2, hA2AAR (Homo sapiens, UniProt P29274); experiment: Radioligand binding competition, [3H]ZM241385, membranes from HeLa-A2A cells; settings: 1 μM, [3H]ZM241385, human HeLa cells, n = 2
T2 construct: expressed in transfected cells; host or cells: HeLa (HeLa-A2A) cell membranes
Outline: as §1

[3] = target: T3, hA3AR (Homo sapiens, UniProt P0DMS8); experiment: Radioligand binding competition, [3H]NECA, membranes from HeLa-A3 cells; settings: 1 μM, [3H]NECA, human HeLa cells, n = 2
T3 construct: expressed in transfected cells; host or cells: HeLa (HeLa-A3) cell membranes
T3 sequence (P0DMS8 1-318): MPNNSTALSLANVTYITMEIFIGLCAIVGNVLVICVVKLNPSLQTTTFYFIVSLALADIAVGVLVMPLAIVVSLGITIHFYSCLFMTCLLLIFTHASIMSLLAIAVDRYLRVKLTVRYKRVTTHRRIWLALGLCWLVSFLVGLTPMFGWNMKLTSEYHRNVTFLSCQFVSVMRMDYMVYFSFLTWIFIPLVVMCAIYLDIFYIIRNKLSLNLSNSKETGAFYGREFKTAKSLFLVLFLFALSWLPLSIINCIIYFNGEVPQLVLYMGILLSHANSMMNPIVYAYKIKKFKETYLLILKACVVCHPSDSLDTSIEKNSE
Outline: as §1

[4] = Solubility determination (nephelometry); assay type: physicochemical; settings: 1:99 DMSO/PSB buffer, PBS pH 7, 37 °C
Description: The solubility of selected compounds was evaluated by following a previously described method.[31] A 10 mM stock solution of the compound was serially diluted in 100% DMSO, and 2.5 μL of this solution was added to a 384-well UV-transparent plate (Greiner) containing 47.5 μL of PBS (pH = 7). The plate was incubated at 37 °C for 4 h, and the light scattering was measured in a NEPHELOstar Plus reader (BMG LABTECH). The data was fitted to a segmented linear regression for measuring the compound solubility.

[5] = target: T4, CYP3A4 (Homo sapiens, UniProt P08684); experiment: CYP3A4 inhibition (fluorescence, substrates DBF or 7-BFC); assay type: biochemical; settings: for CYP3A4 % inh. at 10 μM, 7-BFC: substrate 7-benzyloxy-4-trifluoromethyl-coumarin; for IC50: IC50 obtained by extrapolation with analysis software, read-out: CYP3A4 IC50, DBF
T4 construct: host or cells: insect cell microsomes
Description: To identify potential metabolic liabilities within the series here documented, the selected A2BAR antagonists were tested in vitro for CYP3A4 inhibitory activity.
The inhibitory activity of selected compounds was evaluated by following a previously described method.[31] […] The plate was then pre-incubated at 37 °C for 5 min and the reaction initiated by the addition of a pre-warmed enzyme/substrate (E/S) mix. The E/S mix contained buffer (KH2PO4), c-DNA-expressed P450 in insect cell microsomes, substrate (DBF: dibenzylfluorescein or 7-BFC: 7-benzyloxy-4-trifluoromethyl-coumarin) and other components to give the final assay concentrations in a reaction volume of 200 μL. Reactions were terminated after various times (a specific time for each cytochrome) by addition of STOP solution (ACN/Tris–HCl 0.5 M 80:20, and NaOH 2 N for CYP3A4). Fluorescence per well was measured using a fluorescence plate reader (Tecan Infinite M1000 PRO), and percentage of inhibition was calculated. In silico predictions were performed using free web-based models (FAME 3, SmartCYP, and Xenosite).[62]−[64]

T2 sequence (P29274 whole entry): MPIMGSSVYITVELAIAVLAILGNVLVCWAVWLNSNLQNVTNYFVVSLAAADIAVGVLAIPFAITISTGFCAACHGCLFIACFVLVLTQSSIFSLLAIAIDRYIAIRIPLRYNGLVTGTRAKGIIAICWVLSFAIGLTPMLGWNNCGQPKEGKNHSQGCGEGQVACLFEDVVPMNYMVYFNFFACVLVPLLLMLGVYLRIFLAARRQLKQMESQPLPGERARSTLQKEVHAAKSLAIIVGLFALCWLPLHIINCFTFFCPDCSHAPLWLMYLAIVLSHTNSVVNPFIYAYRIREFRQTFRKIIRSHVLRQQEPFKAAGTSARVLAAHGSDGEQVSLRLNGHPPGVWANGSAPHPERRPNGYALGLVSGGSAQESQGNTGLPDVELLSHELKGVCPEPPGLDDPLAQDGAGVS
T4 sequence (P08684 whole entry): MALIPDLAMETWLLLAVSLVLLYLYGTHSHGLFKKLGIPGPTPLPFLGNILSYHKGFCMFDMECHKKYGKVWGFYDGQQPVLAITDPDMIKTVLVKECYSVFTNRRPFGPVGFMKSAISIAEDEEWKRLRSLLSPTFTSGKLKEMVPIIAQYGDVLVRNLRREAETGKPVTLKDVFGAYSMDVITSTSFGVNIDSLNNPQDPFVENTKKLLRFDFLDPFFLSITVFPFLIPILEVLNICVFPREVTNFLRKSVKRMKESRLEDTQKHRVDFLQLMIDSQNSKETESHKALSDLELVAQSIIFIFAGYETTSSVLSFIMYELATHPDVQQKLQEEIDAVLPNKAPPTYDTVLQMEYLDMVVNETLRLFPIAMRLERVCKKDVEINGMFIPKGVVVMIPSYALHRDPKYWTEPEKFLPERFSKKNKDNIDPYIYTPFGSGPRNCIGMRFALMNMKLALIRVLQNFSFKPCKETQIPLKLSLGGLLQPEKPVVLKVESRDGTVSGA

SMILES	% at 1 μM hA1 (percentage displacement of specific binding) [1]	% at 1 μM hA2A (percentage displacement of specific binding) [2]	% at 1 μM hA3 (percentage displacement of specific binding) [3]	solubility at 4 h [4]	CYP3A4 % inh. at 10 μM, 7-BFC ([5]; 10 μM)	CYP3A4 % inh. at 10 μM, DBF ([5]; 10 μM, substrate dibenzylfluorescein)	IC50 ([5]; substrate dibenzylfluorescein)
CC1=C(C(=O)OC(C)C)C(c2ccco2)n2c(nc3cc(F)ccc32)N1 (stereo not drawn) [16b]	11%	2%	3%	47.5 µM (≈ 16.9 µg/mL)	63%	40%	
CC1=C(C(=O)OC(C)C)C(c2ccco2)n2c(nc3cc(Cl)ccc32)N1 (stereo not drawn) [16j]	35%	24%	2%	23.7 µM (≈ 8.81 µg/mL)	54%		3.68 ± 0.47 µM
CC1=C(C(=O)OC(C)C)C(c2ccco2)n2c(nc3cc(Br)ccc32)N1 (stereo not drawn) [16r]	25%	2%	10%	70.7 µM (≈ 29.4 µg/mL)	52%		2.26 ± 0.3 µM
